These results are taken from patent US20120128777A1, “COMPOSITIONS CONTAINING LIPID MICRO- OR NANOPARTICLES FOR THE ENHANCEMENT OF THE DERMAL ACTION OF SOLID PARTICLES” (PHARMASOL GMBH, priority 2008, published 2012).

This series has as its system skin. The note with it: 50 volunteers, undiluted, patch 48 hours, read after 48 hours and after 72 hours.

For the compound `CCCCCCCCCCCCOS(=O)(=O)[O-].[Na+]` [SDS, Sodium dodecyl sulphate], the positive reactions came to 11 subjects.
